One test relates to HL-60. The test is described as follows: Antiproliferative activity against human HL60 cell line. The test is classed as functional, cell-based.
The test system of test [1] is Panel NCI-51 (51 carcinoma cell lines). Put plainly: Antiproliferative activity against human NCI51 cell line. Format: functional.
For a further test, the system named is JM1. The test is described as follows: Antiproliferative activity against JM1 cell line implanted in Fischer rat liver assessed as decrease in tumor weight. Format: functional, cell-based.
The test system of a further test is TK-10. Put plainly: Antiproliferative activity against human TK10 cell line at 100 uM. Format: functional.
The next test deals with CAKI-1. Put plainly: Antiproliferative activity against human CAKI1 cell line at 100 uM. Format: functional.
The test system of another test is 786-0. Put plainly: Antiproliferative activity against human 786-0 cell line at 100 uM. Format: functional.

Broadly, the IC50 is the concentration that gives 50% inhibition. In turn, `CCOC(=O)N1CCN(/[N+]([O-])=N/Oc2cc(F)c([N+](=O)[O-])cc2[N+](=O)[O-])CC1` displayed an IC50 in the test with HL-60 (Homo sapiens, HL-60) of 1 µM.
On to `CN(C)/[N+]([O-])=N\Oc1ccc([N+](=O)[O-])cc1[N+](=O)[O-]`, for which the IC50 in the test with HL-60 (Homo sapiens, HL-60) turned out to be 2.4 µM.
The compound `N[C@@H](CCC(=O)N[C@H](CSc1ccc([N+](=O)[O-])cc1[N+](=O)[O-])C(=O)NCC(=O)O)C(=O)O` displayed an IC50 in the test with HL-60 (Homo sapiens, HL-60) of 8.4 µM.
The compound `CCN(CC)C(=O)N1CCN(/[N+]([O-])=N\Oc2ccc([N+](=O)[O-])cc2[N+](=O)[O-])CC1` registered an IC50 in the test on HL-60 (Homo sapiens, HL-60) of 7.3 µM.
`O=[N+]([O-])c1ccc(O/N=[N+](/[O-])N2CCN(c3ccccc3)CC2)nc1` registered an IC50 with HL-60 (Homo sapiens, HL-60) of 8 µM.
As for `CCN(CC)/[N+]([O-])=N\Oc1ccc([N+](=O)[O-])cc1C(F)(F)F`, the IC50 in the test with HL-60 (Homo sapiens, HL-60) was 96 µM.
In the test with HL-60 (Homo sapiens, HL-60), `CC(C)Cc1ccc(C(C)C(=O)N2CCN(/[N+]([O-])=N\Oc3ccc([N+](=O)[O-])cc3[N+](=O)[O-])CC2)cc1` (stereo not given) registered an IC50 of 3.2 µM.
Compound `CC(C)(C)OC(=O)N1CCN(/[N+]([O-])=N\Oc2ccc([N+](=O)[O-])cc2[N+](=O)[O-])CC1` registered an IC50 in the test with HL-60 (Homo sapiens, HL-60) of 8.1 µM.
Compound `CN(C)S(=O)(=O)N1CCN(/[N+]([O-])=N\Oc2ccc([N+](=O)[O-])cc2[N+](=O)[O-])CC1` came in with an IC50 in the test on HL-60 (Homo sapiens, HL-60) of 5.2 µM.
As to `NC(=O)C1CCCN(/[N+]([O-])=N/Oc2ccc([N+](=O)[O-])cc2[N+](=O)[O-])C1` (stereo not given), the IC50 in the test on HL-60 (Homo sapiens, HL-60) amounted to 4.4 µM.
Take `COc1ccc(N(C)c2cc(O/N=[N+](/[O-])N(C)C)c([N+](=O)[O-])cc2[N+](=O)[O-])cc1`: in the test with HL-60 (Homo sapiens, HL-60), the IC50 is > 100 µM.
`O=C(c1cccnc1)N1CCN(/[N+]([O-])=N\Oc2ccc([N+](=O)[O-])cc2[N+](=O)[O-])CC1` had an IC50 in the test on HL-60 (Homo sapiens, HL-60) of 7.3 µM.
On to `CC(=O)N1CCN(/[N+]([O-])=N\Oc2ccc([N+](=O)[O-])cc2[N+](=O)[O-])CC1`, for which, in the test on HL-60 (Homo sapiens, HL-60), it took 3.9 µM to reach half-maximal inhibition (IC50).
Compound `CCOC(=O)N1CCN(/[N+]([O-])=N/Oc2cc(O/N=[N+](\[O-])N3CCN(C(=O)OC)CC3)c([N+](=O)[O-])cc2[N+](=O)[O-])CC1` showed an IC50 in the test on HL-60 (Homo sapiens, HL-60) of 0.8 µM.
Same read-out and setting: the value for `O=C(ON1C(=O)CCC1=O)N1CCN(/[N+]([O-])=N\Oc2ccc([N+](=O)[O-])cc2[N+](=O)[O-])CC1` was 27 µM; that for `CCN(CC)/[N+]([O-])=N\Oc1ccnc(SC)n1` was > 100 µM.
As to `O=[N+]([O-])c1ccc(O/N=[N+](/[O-])N2CCN(c3ccccc3)CC2)c([N+](=O)[O-])c1`, in the test on HL-60 (Homo sapiens, HL-60), the IC50 turned out to be 1.5 µM.
Compound `CNc1ccc(C(=O)Oc2cc(O/N=[N+](/[O-])N(C)C)c([N+](=O)[O-])cc2[N+](=O)[O-])cc1` displayed a concentration for half-maximal inhibition (IC50) in the test on HL-60 (Homo sapiens, HL-60) of 6.3 µM.
In the test with HL-60 (Homo sapiens, HL-60), `O=NO` [SODIUM NITRITE] showed a half-maximal inhibitory concentration (IC50) of 94 µM.
As a reminder, the GI50 is the concentration at which growth is held to half of that of the control. In general, TGI refers to the concentration giving total growth inhibition. Read a low TGI as greater sensitivity of the cells. For `CCOC(=O)N1CCN(/[N+]([O-])=N/Oc2ccc([N+](=O)[O-])cc2[N+](=O)[O-])CC1`, in test [1], the GI50 was 1.32 µM and the TGI is 6.61 µM. In the test on HL-60 (Homo sapiens, HL-60), the IC50 came to 0.5 µM. In addition, the Activity result with JM1 is “Dose-dependent effect”.
Regarding `O=[N+]([O-])c1cc(C(F)(F)F)ccc1O/N=[N+](\[O-])N1CCN(c2ccccc2)CC1`, the IC50 in the test with HL-60 (Homo sapiens, HL-60) is > 100 µM.
As for `NC(=O)C1CCN(/[N+]([O-])=N/Oc2ccc([N+](=O)[O-])cc2[N+](=O)[O-])CC1`, the IC50 with HL-60 (Homo sapiens, HL-60) was 5.9 µM.
In the case of `CN(C)/[N+]([O-])=N\Oc1cc(Nc2ccc(C(=O)O)cc2)c([N+](=O)[O-])cc1[N+](=O)[O-]`, inhibition with HL-60 (Homo sapiens, HL-60) was half-maximal at 9.1 µM (IC50).
On the same count and under the same terms, the value for `CCOC(=O)N1CCN(/[N+]([O-])=N\O)CC1` was 4 µM.
Usually LC50 stands for the concentration that kills 50% of the test population. A low value points to a more lethal substance. In test [1], `CCCCOC(=O)N1CCN(/[N+]([O-])=N\Oc2ccc([N+](=O)[O-])cc2[N+](=O)[O-])CC1` had a GI50 of 6.31 µM, an LC50 of 63.1 µM and a TGI of 23.4 µM. This compound also displayed an Activity with TK-10 of 100%. In the test on HL-60 (Homo sapiens, HL-60), the concentration for half-maximal inhibition (IC50) is 3.5 µM and total growth inhibition (TGI) required 57.5 µM. Further, in the test with CAKI-1, the Activity turned out to be 100%. In the test with 786-0, this compound returned an Activity of 100%.
`CN(C)/[N+]([O-])=N/Oc1cc(Nc2cccc(C(=O)O)c2)c([N+](=O)[O-])cc1[N+](=O)[O-]` displayed an IC50 in the test on HL-60 (Homo sapiens, HL-60) of 10.1 µM.
Consider `C1CNCCN1` [PIPERAZINE], for which, in the test with HL-60 (Homo sapiens, HL-60), half-maximal inhibition (IC50) was put at 83 µM.
Turning to `CN(C)/[N+]([O-])=N\Oc1cc(F)c([N+](=O)[O-])cc1[N+](=O)[O-]`, in the test on HL-60 (Homo sapiens, HL-60), the IC50 was found to be 3.5 µM.
Still for that read-out and setting: the value for `CN1CCN(/[N+]([O-])=N\Oc2ccc([N+](=O)[O-])cc2[N+](=O)[O-])CC1` was 6.7 µM.
`O=[N+]([O-])c1ccc(O/N=[N+](/[O-])N2CCNCC2)c([N+](=O)[O-])c1`: the IC50 with HL-60 (Homo sapiens, HL-60) amounted to 5 µM.
Regarding `O=[N+]([O-])c1ccc(O)c([N+](=O)[O-])c1` [2,4-DINITROPHENOL], the IC50 with HL-60 (Homo sapiens, HL-60) amounted to 98 µM.
Compound `O=[N+]([O-])c1ccc(Cl)c([N+](=O)[O-])c1` [DINITROCHLOROBENZENE] displayed an IC50 with HL-60 (hl-60) of 1.4 µM.
On to `CC(=O)Oc1ccccc1C(=O)N1CCN(/[N+]([O-])=N\Oc2ccc([N+](=O)[O-])cc2[N+](=O)[O-])CC1`, for which inhibition with HL-60 (Homo sapiens, HL-60) was half-maximal at 3.7 µM (IC50).
Take `CN(C)/[N+]([O-])=N\Oc1ccc([N+](=O)[O-])cn1`: the IC50 with HL-60 (Homo sapiens, HL-60) is > 100 µM.
Regarding `CCN(CC)/[N+]([O-])=N\Oc1ccccc1[N+](=O)[O-]`, in the test on HL-60 (Homo sapiens, HL-60), the IC50 is > 100 µM.
Compound `CCOC(=O)N1CCN(/[N+]([O-])=N/Oc2ccnc(Cl)n2)CC1` returned an IC50 in the test with HL-60 (Homo sapiens, HL-60) of 70 µM.
Consider `CN(C)/[N+]([O-])=N\Oc1cc(O)c([N+](=O)[O-])cc1[N+](=O)[O-]`, for which the IC50 in the test on HL-60 (Homo sapiens, HL-60) is > 100 µM.
The same measure, in the same setting: the result for `O=[N+]([O-])c1ccc(O/N=[N+](\[O-])N2CCCC2)c([N+](=O)[O-])c1` reads 7.4 µM; that for `CC(=O)NCC(=O)N1CCN(/[N+]([O-])=N\Oc2ccc([N+](=O)[O-])cc2[N+](=O)[O-])CC1`, 8.8 µM; that for `CCN(CC)/[N+]([O-])=N/Oc1cc(O/N=[N+](/[O-])N(CC)CC)c([N+](=O)[O-])cc1[N+](=O)[O-]`, 1 µM.
For `O=[N+]([O-])c1ccc(O/N=[N+](\[O-])N2CCN(c3ncccn3)CC2)c([N+](=O)[O-])c1`, the midpoint of inhibition with HL-60 (Homo sapiens, HL-60), the IC50, lay at 3.6 µM.
Turning to `CCN(CC)/[N+]([O-])=N/Oc1ccc([N+](=O)[O-])cc1[N+](=O)[O-]`, in the test on HL-60 (Homo sapiens, HL-60), the IC50 was 2.2 µM.
For `CCCOC(=O)N1CCN(/[N+]([O-])=N\Oc2ccc([N+](=O)[O-])cc2[N+](=O)[O-])CC1`, in test [1], the GI50 turned out to be 2.04 µM, the LC50 worked out at 40.7 µM and total growth inhibition (TGI) required 10.2 µM. Besides, the Activity in the test with TK-10 is 100%. In the test on HL-60 (Homo sapiens, HL-60), this compound had an IC50 of 3.7 µM and a TGI of 8.1 µM. Besides, the Activity with CAKI-1 was determined as 100%. This compound also had an Activity in the test on 786-0 of 100%.
The compound `CCOC(=O)N1CCNCC1` [N-(ETHOXYCARBONYL)PIPERAZINE] showed an IC50 with HL-60 (Homo sapiens, HL-60) of 8.6 µM.
In the test with HL-60 (Homo sapiens, HL-60), `CN(c1cccc(C(=O)O)c1)c1cc(O/N=[N+](/[O-])N(C)C)c([N+](=O)[O-])cc1[N+](=O)[O-]` yielded an IC50 of 12 µM.
Consider `O=C(OCc1ccccc1)N1CCN(/[N+]([O-])=N\Oc2ccc([N+](=O)[O-])cc2[N+](=O)[O-])CC1`, for which the concentration for 50% growth inhibition (GI50) in test [1] is 7.08 µM. In test [1], this compound yielded an LC50 of 77.6 µM. This compound also came in with a TGI in test [1] of 30.9 µM. In addition, the Activity in the test with TK-10, with CAKI-1 and in the test on 786-0 was 100% throughout. Further, 17 µM corresponded to half-maximal inhibition with HL-60 (Homo sapiens, HL-60) (IC50).
`CCN(CC)/[N+]([O-])=N\Oc1ccc([N+](=O)[O-])cc1`: in the test on HL-60 (Homo sapiens, HL-60), the IC50 is > 100 µM.

These data come from ChEMBL document CHEMBL1138078, “Antitumor activity of JS-K [O2-(2,4-dinitrophenyl) 1-[(4-ethoxycarbonyl)piperazin-1-yl]diazen-1-ium-1,2-diolate] and related O2-aryl diazeniumdiolates in vitro and in vivo” (J Med Chem, 2006).
